How the values were obtained:
[1] = tested on: patients with psychogenic impotence; conditions: nicotine e.g. by smoking
[2] = tested on: patients with psychogenic impotence; conditions: patients on liquid sublingual apomorphine 10 mg and 20 mg

Structure (SMILES) | counteraction of adverse effects of the 5 mg apomorphine dose (nausea, diaphoresis, etc.) [1] | counteraction of apomorphine adverse effects (nausea, vomiting, diaphoresis, etc.) [2]
O=c1[nH]c2ccccc2n1CCCN1CCC(n2c(=O)[nH]c3cc(Cl)ccc32)CC1 [Domperidone] | can be counteracted | can be counteracted
CN1CCCC1c1cccnc1 (stereo not drawn) [nicotine] | can be counteracted | –

From US6566368B2, “Apomorphine-containing dosage form for ameliorating male erectile dysfunction” (Pentech Pharmaceuticals, Inc., priority 1994, dated 2003)
